Measured values: patent US12036210B2, “Heteroaryl substituted beta-hydroxyethylamines for use in treating hyperglycaemia” (ATROGI AB, priority 2017, dated 2024)
Counter-ions that a name gives are not always drawn.

Experiments:
L6-myotubes = assay: Glucose uptake (3H-2-deoxy-glucose) in differentiated L6-myotubes; format: cell-based; settings: agonist final concentration 1×10^−5, 50 nM 3H-2-deoxy-glucose, relative to isoproterenol, read-out: Biological example 1 (glucose uptake, activity compared to that of isoproterenol)
Method: (§1) L6-myoblasts were grown in Dulbecco's Modified Eagle's Medium (DMEM) containing 4.5 g/I glucose supplemented with 10% fetal bovine serum, 2 mM L-Glutamine, 50 U/ml penicillin, 50 μg/ml streptomycin and 10 mM HEPES. Cells were plated at 1×10^5 cells per ml in 24-well plates. After reaching 90% confluence the cells were grown in medium containing 2% FBS for 7 days where upon cells differentiated into myotubes.
Differentiated L6-myotubes were serum-starved over night in medium containing 0.5% fatty-acid free BSA and stimulated with agonist, final concentration 1×10^−5. After 1 h 40 min cells were washed with warm, glucose free medium or PBS and another portion of agonist was added to glucose free medium. After 20 min the cells were exposed to 50 nM ^3H-2-deoxy-glucose for another 10 min before washed in ice cold glucose free medium or PBS and lysed in 0.2 M NaOH for 1 h in 60° C.

[1] = system: Intracellular cAMP levels; assay: Measurement of intracellular cAMP levels in differentiated L6 cells (alpha screen cAMP kit); format: cell-based; settings: Rattus norvegicus, L6, 0.25 h, agonist final concentration 1×10^−5 for 15 min, 1 mM IBMX, relative to isoproterenol, read-out: Biological example 2 (intracellular cAMP levels, activity compared to that of isoproterenol)
Method: as §1
Differentiated cells were serum-starved over night and stimulated with agonist, final concentration 1×10^−5, for 15 min in stimulation buffer (HBSS supplemented with 1% BSA, 5 mM HEPES and 1 mM IBMX, pH 7.4) The medium was then aspirated and to end the reaction 100 μL of 95% EtOH was added to each well of a 24-well plate and cells were kept in −20° C. over night. The EtOH was let to evaporate and 500 μL of lysis buffer (1% BSA, 5 mM HEPES and 0.3% Tween-20, pH 7.4) was added to each well before put in −80° C. for 30 min and then kept in −20° C. Intracellular cAMP levels were detected using an alpha screen cAMP kit (6760635D from Perkin Elmer). The activity for each compound is compared to that of isoproterenol.

## CC(C)(C)NC[C@H](O)c1cncc(F)c1 [Example 17, (R)-2-(tert-Butylamino)-1-(5-fluoropyridin-3-yl)ethan-1-ol]
L6-myotubes
  Emax: > 75%
[1]
  Emax: 25 to 50%

## CC(C)(C)NCC(O)c1ccncc1O (stereo not drawn) [Example 14, 4-(2-(tert-Butylamino)-1-hydroxyethyl)pyridin-3-ol hydrochloride]
L6-myotubes
  Emax: > 75%
[1]
  Emax: < 25%

## CCCCNCC(O)c1cc[nH]c(=O)c1 (stereo not drawn) [Example 4, 4-(2-(Butylamino)-1-hydroxyethyl)pyridin-2(1H)-one acetate]
L6-myotubes
  Emax: 50 to 75%
[1]
  Emax: < 25%

## CCCCNC[C@H](O)c1cnc(N)s1 [Example 9, (S)-1-(2-Aminothiazol-5-yl)-2-(butylamino)ethan-1-ol dihydrochloride]
L6-myotubes
  Emax: 25 to 50%
[1]
  Emax: < 25%

## CCCCNC[C@H](O)c1cnc(NC(=O)C(C)C)nc1 [Example 10, (R)—N-(5-(2-(Butylamino)-1-hydroxyethyl)pyrimidin-2-yl)isobutyramide hydrochloride]
L6-myotubes
  Emax: 50 to 75%
[1]
  Emax: < 25%

## CC(C)(C)NC[C@H](O)c1ccc(O)cn1 [Example 12, (S)-6-(2-(tert-Butylamino)-1-hydroxyethyl)pyridin-3-ol]
L6-myotubes
  Emax: 50 to 75%
[1]
  Emax: < 25%

## CC(C)(C)NC[C@H](O)c1cncc(Cl)c1 [Example 19, (R)-2-(tert-Butylamino)-1-(5-chloropyridin-3-yl)ethan-1-ol]
L6-myotubes
  Emax: > 75%
[1]
  Emax: < 25%

## Cn1ccc([C@@H](O)CNC(C)(C)C)cc1=O [Example 15, (R)-4-(2-(tert-Butylamino)-1-hydroxyethyl)-1-methylpyridin-2(1H)-one]
L6-myotubes
  Emax: > 75%
[1]
  Emax: < 25%

## CC(C)(C)NC[C@H](O)c1ccc(Cl)cn1 [Example 21, (S)-2-(tert-Butylamino)-1-(5-chloropyridin-2-yl)ethan-1-ol dihydrochloride]
L6-myotubes
  Emax: 25 to 50%
[1]
  Emax: < 25%

## CCCCNC[C@H](O)c1ccnc(N)n1 [Example 5, (S)-1-(2-Aminopyrimidin-4-yl)-2-(butylamino)ethan-1-ol]
L6-myotubes
  Emax: 25 to 50%
[1]
  Emax: < 25%

## CCCCNCC(O)c1cccnc1 (stereo not drawn) [Example 7, 2-(Butylamino)-1-(pyridin-3-yl)ethan-1-ol]
L6-myotubes
  Emax: 50 to 75%
[1]
  Emax: < 25%

## CC(C)(C)NC[C@H](O)c1ccc(F)cn1 [Example 16, (S)-2-(tert-Butylamino)-1-(5-fluoropyridin-2-yl)ethan-1-ol]
L6-myotubes
  Emax: 50 to 75%
[1]
  Emax: < 25%

## CC(C)(C)NC[C@H](O)c1ncccc1Cl [Example 20, (S)-2-(tert-Butylamino)-1-(3-chloropyridin-2-yl)ethan-1-ol dihydrochloride]
L6-myotubes
  Emax: 25 to 50%
[1]
  Emax: < 25%

## CCCCNC[C@H](O)c1csc(N)n1 [Example 1, (S)-1-(2-Aminothiazol-4-yl)-2-(butylamino)ethan-1-ol hydrochloride]
L6-myotubes
  Emax: 25 to 50%
[1]
  Emax: < 25%

## CC(C)(C)NC[C@H](O)c1ccncc1F [Example 18, (R)-2-(tert-Butylamino)-1-(3-fluoropyridin-4-yl)ethan-1-ol]
L6-myotubes
  Emax: 25 to 50%
[1]
  Emax: < 25%

## CCCCNCC(O)c1ccc(=O)[nH]c1 (stereo not drawn) [Example 3, 5-(2-(Butylamino)-1-hydroxyethyl)pyridin-2(1H)-one]
L6-myotubes
  Emax: 25 to 50%
[1]
  Emax: < 25%

## CCCCNCC(O)c1ccncc1 (stereo not drawn) [Example 6, 2-(Butylamino)-1-(pyridin-4-yl)ethan-1-ol]
L6-myotubes
  Emax: 25 to 50%
[1]
  Emax: < 25%

## CCCCNC[C@H](O)c1cnc(N)nc1 [Example 11, (R)-1-(2-Aminopyrimidin-5-yl)-2-(butylamino)ethan-1-ol]
L6-myotubes
  Emax: 50 to 75%
[1]
  Emax: < 25%

## CCCCNC[C@H](O)c1cnc(NC(=O)C(C)C)s1 [Example 8, (S)—N-(5-(2-(Butylamino)-1-hydroxyethyl)thiazol-2-yl)isobutyramide]
L6-myotubes
  Emax: 25 to 50%
[1]
  Emax: < 25%

## CC(C)(C)NC[C@H](O)c1cncc(O)c1 [Example 13, (R)-5-(2-(tert-Butylamino)-1-hydroxyethyl)pyridin-3-ol dihydrochloride]
L6-myotubes
  Emax: > 75%
[1]
  Emax: < 25%

## CCCCNC[C@H](O)c1csc(C(F)(F)F)n1 [Example 2, (S)-2-(Butylamino)-1-(2-(trifluoromethyl)thiazol-4-yl)ethan-1-ol hydrochloride]
L6-myotubes
  Emax: 25 to 50%
[1]
  Emax: < 25%
